Experimental data as given in the supplement of paper PMC10307832.

Experiments:
Assay in all cases: relative viability (nuclei count vs DMSO), 5 days (fraction); higher = more cells survive
Decitabine + Pemetrexed = compound: Nc1ncn([C@H]2C[C@H](O)[C@@H](CO)O2)c(=O)n1 [Decitabine] + Nc1nc2[nH]cc(CCc3ccc(C(=O)N[C@@H](CCC(=O)O)C(=O)O)cc3)c2c(=O)[nH]1 [Pemetrexed] (partner 0.2 µM)
Summary of the method: (§1)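 One day after seeding in 1536-well plates, lung cancer cell lines were dosed by pin tool. Dosing was either single-drug or a fixed anchor-drug dose plus five library-drug doses (not always all listed) in √10 steps. After 5 days, nuclei were stained in one fix-and-stain step and counted on 4× images, and relative viability is the nuclei count of treated wells over that of vehicle wells, given as the median of duplicate plates.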

Cediranib + Navitoclax = compound: COc1cc2c(Oc3ccc4[nH]c(C)cc4c3F)ncnc2cc1OCCCN1CCCC1 [Cediranib] + CC1(C)CCC(c2ccc(Cl)cc2)=C(CN2CCN(c3ccc(C(=O)NS(=O)(=O)c4ccc(N[C@H](CCN5CCOCC5)CSc5ccccc5)c(S(=O)(=O)C(F)(F)F)c4)cc3)CC2)C1 [Navitoclax] (partner 0.5 µM)
Summary of the method: as §1

Decitabine + Alpelisib = compound: Nc1ncn([C@H]2C[C@H](O)[C@@H](CO)O2)c(=O)n1 [Decitabine] + Cc1nc(NC(=O)N2CCC[C@H]2C(N)=O)sc1-c1ccnc(C(C)(C)C(F)(F)F)c1 [Alpelisib] (partner 2 µM)
Summary of the method: as §1

Cediranib + OSI-027 = compound: COc1cc2c(Oc3ccc4[nH]c(C)cc4c3F)ncnc2cc1OCCCN1CCCC1 [Cediranib] + COc1cccc2cc(-c3nc([C@H]4CC[C@H](C(=O)O)CC4)n4ncnc(N)c34)[nH]c12 [OSI-027] (partner 0.5 µM)
Summary of the method: as §1

| Cell Line | relative viability (Decitabine + Pemetrexed; first compound 0.04 µM) | relative viability (Decitabine + Pemetrexed; first compound 0.1265 µM) | relative viability (Decitabine + Pemetrexed; first compound 0.4 µM) | relative viability (Decitabine + Pemetrexed; first compound 1.265 µM) | relative viability (Decitabine + Pemetrexed; first compound 4 µM) | relative viability (Cediranib + Navitoclax; first compound 0.04 µM) | relative viability (Cediranib + Navitoclax; first compound 0.1265 µM) | relative viability (Cediranib + Navitoclax; first compound 0.4 µM) | relative viability (Cediranib + Navitoclax; first compound 1.265 µM) | relative viability (Cediranib + Navitoclax; first compound 4 µM) | relative viability (Decitabine + Alpelisib; first compound 0.04 µM) | relative viability (Decitabine + Alpelisib; first compound 0.1265 µM) | relative viability (Decitabine + Alpelisib; first compound 0.4 µM) | relative viability (Decitabine + Alpelisib; first compound 1.265 µM) | relative viability (Decitabine + Alpelisib; first compound 4 µM) | relative viability (Cediranib + OSI-027; first compound 0.04 µM) | relative viability (Cediranib + OSI-027; first compound 0.1265 µM) | relative viability (Cediranib + OSI-027; first compound 0.4 µM) | relative viability (Cediranib + OSI-027; first compound 1.265 µM) | relative viability (Cediranib + OSI-027; first compound 4 µM) |
| --- | --- | --- | --- | --- | --- | --- | --- | --- | --- | --- | --- | --- | --- | --- | --- | --- | --- | --- | --- | --- |
| HOP-62 | 0.283 | 0.31 | 0.205 | 0.186 | 0.183 | 1.08 | 0.892 | 0.867 | 1.1 | 1.14 | 0.652 | 0.323 | 0.152 | 0.124 | 0.125 | 0.78 | 0.813 | 0.771 | 0.677 | 0.791 |
| LC-2-ad | 0.288 | 0.255 | 0.27 | 0.239 | 0.266 | 0.504 | 0.502 | 0.469 | 0.419 | 0.513 | 0.726 | 0.742 | 0.681 | 0.378 | 0.304 | 0.874 | 0.731 | 0.821 | 0.762 | 0.835 |
| LCLC-97TM1 | 0.173 | 0.134 | 0.0965 | 0.125 | 0.13 | 0.316 |  | 0.448 | 0.544 | 0.527 | 0.172 | 0.151 | 0.14 | 0.129 | 0.112 | 0.605 | 0.332 | 0.518 | 0.508 | 0.566 |
| LK-2 | 0.194 | 0.256 | 0.223 | 0.245 | 0.211 | 1 | 0.848 | 0.768 | 0.828 | 0.861 |  | 0.986 | 0.73 | 0.553 | 0.504 | 0.181 | 0.192 | 0.22 | 0.175 | 0.201 |
| LOU-NH91 | 0.378 | 0.358 | 0.422 | 0.336 | 0.397 | 0.673 | 0.635 | 0.665 | 0.706 | 0.544 | 0.484 | 0.673 | 0.688 | 0.592 | 0.61 | 0.769 | 0.862 | 0.707 | 0.582 | 0.701 |
| LU99A | 0.149 | 0.157 | 0.182 | 0.202 | 0.167 | 0.787 |  | 0.813 | 0.698 | 0.969 | 0.466 | 0.7 | 0.625 | 0.504 | 0.389 | 0.281 | 0.314 | 0.305 | 0.286 | 0.288 |
| LXF-289 | 0.69 | 0.541 | 0.423 | 0.315 | 0.297 | 0.97 | 0.878 | 0.948 | 0.926 | 0.957 | 0.716 | 0.606 | 0.478 | 0.352 | 0.315 | 0.667 | 0.641 | 0.689 | 0.77 | 0.79 |
| NCI-H23 | 0.572 | 0.546 | 0.322 | 0.294 | 0.272 | 0.974 |  | 0.615 | 0.702 | 0.794 | 0.604 | 0.391 | 0.275 | 0.218 | 0.238 | 0.511 |  | 0.557 | 0.511 | 0.582 |
| NCI-H322M | 0.549 | 0.602 | 0.534 | 0.709 | 0.53 | 1.22 | 1.21 | 1.08 | 1.21 | 1.14 | 0.659 | 0.613 | 0.71 | 0.498 | 0.403 | 0.541 | 0.567 | 0.535 | 0.52 | 0.538 |
| NCI-H441 | 0.214 | 0.203 | 0.184 | 0.197 | 0.235 | 0.466 | 0.63 |  | 0.763 | 0.573 | 0.412 | 0.334 | 0.276 | 0.214 | 0.259 | 0.809 |  | 0.658 | 0.675 | 0.632 |
| NCI-H460 | 0.0582 | 0.0551 | 0.0502 | 0.0449 | 0.0449 | 1.12 | 1.1 | 0.938 | 0.993 | 1.33 | 0.425 | 0.575 | 0.348 | 0.268 | 0.191 | 0.852 | 0.684 | 0.573 | 0.605 | 0.613 |
| NCI-H520 | 0.545 | 0.468 | 0.477 | 0.317 | 0.293 | 1.15 |  | 0.926 | 1.09 | 1.2 | 0.896 | 0.69 | 0.597 | 0.369 | 0.337 | 0.403 | 0.239 | 0.211 | 0.202 | 0.226 |
| NCI-H596 | 0.582 | 0.456 | 0.338 | 0.44 | 0.484 | 0.943 | 0.926 | 0.938 | 0.879 | 0.996 | 0.449 | 0.46 | 0.462 | 0.451 | 0.407 | 0.775 | 0.815 | 0.723 |  | 0.788 |
| NCI-H647 | 0.168 | 0.149 | 0.12 | 0.13 | 0.112 | 1.11 |  | 1.16 | 1.12 | 1.14 | 0.971 | 0.858 | 0.632 | 0.201 | 0.254 | 0.614 | 0.694 | 0.549 | 0.49 | 0.841 |
| NCI-H838 | 0.225 | 0.236 | 0.2 | 0.19 | 0.198 | 1.17 | 1.07 | 1.17 | 1.1 | 1.41 | 0.715 | 0.461 | 0.409 | 0.396 | 0.276 | 0.41 | 0.364 | 0.379 | 0.348 | 0.483 |
| NCI-H1355 | 0.701 | 0.513 | 0.38 | 0.323 | 0.314 | 0.94 | 0.954 | 0.898 | 0.936 | 1.04 | 0.632 | 0.536 | 0.412 | 0.295 | 0.266 | 0.38 | 0.363 | 0.387 | 0.34 | 0.449 |
